Results published in patent EP4653001A1, “TREATMENT, DIAGNOSIS AND/OR PROGNOSIS OF MITOCHONDRIAL DISEASES” (Universidad Autónoma de Madrid, priority 2024, dated 2025).

Assays:
[1] = tested on: 143B cells; assay: PPP activity measurement in 143B cells; type: cell-based; conditions: 24 h
Experimental: The determination of pentose-phosphate pathway (PPP) activity was conducted by assessing the difference between 14CO2 production from 1-14C-glucose, which decarboxylates through the 6-phosphogluconate dehydrogenase-catalyzed reaction, and that of 6-^14C-glucose, which decarboxylates through the tricarboxylic acid cycle.
Increased lactate secretion is considered a good indicator of enhanced glycolytic rates, which is a common feature of ETC-inhibited cells as they switch from OXPHOS to glycolysis to maintain ATP levels. […] We culture 143B cells in the presence of Piericidin for 24 h and PPP activity and lactate release, as a proxy of glycolysis, were measured. As expected, lactate detection in the media was higher in CI-inhibited cells. […] Next, we wonder if in this context, glucose can be overused by glycolysis and therefore diverted away from the PPP. Diseases associated with impaired mitochondrial function negatively impact high energy demanding tissues such as the brain. As such, neurons that are highly sensitive to ETC inhibition also rely strongly on glucose metabolism. Thus, we used mouse cortical neurons to determine the rates of glycolysis and PPP as glucose levels become limiting. Control and Piericidin treated neurons where cultured in media containing supraphysiological (25 mM), physiological (5 mM) or subphysiological concentrations of glucose (2,5 mM). […]

[2] = tested on: primary neurons; assay: Neuronal death; type: cell-based, mouse; conditions: CI inhibition
[3] = tested on: mouse cortical neurons; assay: L-lactate release in neurons (Lactate-Glo); type: cell-based
Experimental: (§1) Primary cultures of C57BL/6 mouse cortical neurons were prepared from embryos between embryonic days 16.5 and 17.5 and seeded onto pre-treated plates coated with Poly-L-lysine hydrobromide (500 µg/ml). We used Neurobasal medium without D-glucose and sodium pyruvate (ThermoFisher) to modulate D-glucose levels, depending on the experiment (2.5 mM, 5 mM, or 25 mM).
L-lactate levels were measured in mouse cortical neurons using Lactate-Glo™ Assay (Promega, #J5021) following the original protocol.
Increased lactate secretion is considered a good indicator of enhanced glycolytic rates, which is a common feature of ETC-inhibited cells as they switch from OXPHOS to glycolysis to maintain ATP levels. […] We culture 143B cells in the presence of Piericidin for 24 h and PPP activity and lactate release, as a proxy of glycolysis, were measured. As expected, lactate detection in the media was higher in CI-inhibited cells. […] Next, we wonder if in this context, glucose can be overused by glycolysis and therefore diverted away from the PPP. Diseases associated with impaired mitochondrial function negatively impact high energy demanding tissues such as the brain. As such, neurons that are highly sensitive to ETC inhibition also rely strongly on glucose metabolism. Thus, we used mouse cortical neurons to determine the rates of glycolysis and PPP as glucose levels become limiting. Control and Piericidin treated neurons where cultured in media containing supraphysiological (25 mM), physiological (5 mM) or subphysiological concentrations of glucose (2,5 mM). […] Decreased PPP activity under low glucose (2,5 mM) correlated with a rapid decline in NADPH/NADP+ levels in CI-inhibited cells. Conversely, glucose availability had no effect on ATP levels at this timepoint.

[4] = tested on: mouse cortical neurons; assay: NADPH/NADP+ levels in neurons (NADP/NADPH-Glo); type: cell-based; conditions: CI-inhibited neurons
Experimental: as §1
In standard experiments, we utilized Neurobasal medium with 25 mM D-glucose, 1 mM sodium pyruvate (ThermoFisher), B27 plus supplement (GIBCO), GlutaMax I 100X (GIBCO), and 1% penicillin/streptomycin (P/S). Starting from day 6 in vitro (DIV6), half of the medium was replaced every 3-4 days, omitting GlutaMax I.
(§2) The NADP/NADP-Glo™ Assay (Promega) was employed to assess the NADP/NADPH ratio in cultured cells, following the manufacturer's instructions (Technical Bulletin Number TM400). This bioluminescent assay can detect both total oxidized and reduced nicotinamide adenine dinucleotide phosphates (NADP+ and NADPH) and determine their ratio.
Cells were cultured in 24-well plates (Falcon®) at varying concentrations depending on the cell type and the specific experiment. After removing the media, we added 100 µl of PBS 1X per well and lysed the cells by introducing 100 µl of a base solution with 1% DTAB (1:1 ratio). […] Luminescence was measured using the CLARIOstar Plus plate reader from BMG LABTECH.

[5] = tested on: astrocytes; assay: NADPH/NADP+ levels in astrocytes; type: cell-based, mouse
Experimental: Primary cultures of C57BL/6 mouse cortical astrocytes were derived from postnatal day 2-3 pups. They were plated on pre-treated dishes coated with Poly-L-lysine (100 µg/ml) and cultured in DMEM/F-12 (ThermoFisher) supplemented with 15% FBS and 1% penicillin/streptomycin (P/S). After 24 hours of plating, the medium was switched to 10% FBS.
as §2
Cells were cultured in 24-well plates (Falcon®) at varying concentrations depending on the cell type and the specific experiment. After removing the media, we added 100 µl of PBS 1X per well and lysed the cells by introducing 100 µl of a base solution with 1% DTAB (1:1 ratio). To adapt the volumes for a 96-well plate, we divided the 200 µl total into two parts, allocating 50 µl for measuring NADP+ and 50 µl for NADPH in separate positions on the plate, allowing us to measure both NADP and NADPH levels. The assay was then carried out as per the standard protocol. Luminescence was measured using the CLARIOstar Plus plate reader from BMG LABTECH.

CC=C(C)C(O)C(C)C=C(C)C=CCC(C)=CCc1nc(OC)c(OC)c(O)c1C (stereo not drawn) [Piericidin, Piericidin A]
PPP activity [1]: significant increase
neuronal death [2]: did not correspond to an increase
lactate secretion ([3]; 5 mM glucose, trend, did not reach statistical significance): increased lactated secretion
levels of lactate ([3]; limited glucose availability (2,5 mM), 100 nM, 16 h): preserving
lactate ([3]; neurons cultured in 25 mM glucose, 100 nM, 16 h): significantly upregulation
NADPH levels ([4]; 100 nM, 24 h): marked drop
NADPH/NADP+ levels ([4]; low glucose (2,5 mM)): rapid decline
levels of NADPH ([5]; PC and ME1 knockdown astrocytes, 100nM, 96 h): reduced
NADPH levels ([5]; astrocytes, 100 nM, 24 h): did not cause any alteration
